In the assay the target is T1, BACE2 (Rattus norvegicus, UniProt Q6IE75).
T1 construct: endogenous cellular BACE2 in the Ins1e rat cell line; endogenous in cells; host or cells: INS-TMEM27 (INS1e-derived rat beta-cell line with doxycycline-inducible full-length hTMEM27)
T1 sequence (Q6IE75 63-514): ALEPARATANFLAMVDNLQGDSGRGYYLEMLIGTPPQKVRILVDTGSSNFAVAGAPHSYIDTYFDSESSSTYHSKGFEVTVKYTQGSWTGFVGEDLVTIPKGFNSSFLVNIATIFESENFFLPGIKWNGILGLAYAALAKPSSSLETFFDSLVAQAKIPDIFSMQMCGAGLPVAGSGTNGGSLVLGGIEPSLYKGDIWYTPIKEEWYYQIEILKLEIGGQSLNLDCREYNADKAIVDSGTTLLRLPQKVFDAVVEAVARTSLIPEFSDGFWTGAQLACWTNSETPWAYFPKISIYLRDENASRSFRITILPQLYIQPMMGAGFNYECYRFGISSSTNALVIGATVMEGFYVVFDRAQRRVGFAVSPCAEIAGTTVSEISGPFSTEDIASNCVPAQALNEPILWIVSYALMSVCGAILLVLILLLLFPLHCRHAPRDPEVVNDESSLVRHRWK
As to the kind of experiment: Assay for BACE inhibition by measuring cellular TMEM27 cleavage (INS-TMEM27 cells, ELISA of shed TMEM27). Type of assay: cell-based. The note with it: inhibition of human TMEM27 cleavage by endogenous cellular BACE2 in INS1e-derived INS-TMEM27 rat cell line; ELISA of shed TMEM27 in supernatant. An excerpt:
Assay for […] Inhibition by Measuring Cellular TMEM27 Cleavage
This assay uses the principle of inhibition of human TMEM27 cleavage by endogenous cellular BACE2 in the Ins1e rat cell line and shedding from the cell surface into the culture medium, followed by detection in an ELISA assay. Inhibition of BACE2 prevents the cleavage and shedding in a dose-dependent manner.
The stable cell line “INS-TMEM27” represents an INS1e-derived cell line with inducible expression (using the TetOn system) of full-length hTMEM27 in a doxycycline-dependent manner. The cells were cultured throughout the experiment in RPMI1640+Glutamax (Invitrogen) Penicillin/Streptomycin, 10% Fetal bovine serum, 100 mM pyruvate, […] beta-mercatptoethanol, 100 micrograms/ml G418 and 100 microgram/ml hygromycin and were grown in adherent culture at 37° C. in a standard CO2 cell culture incubator.
INS-TMEM27 cells were seeded in 96-well plates. After 2 days in culture, BACE2 inhibitor was added in a range of concentrations as required by the assay and after a further two hours, doxycycline was added to a final concentration of 500 ng/ml. The cells were incubated for a further 46 hours and the supernatant harvested for detection of shed TMEM27.
An ELISA assay (using a pair of mouse anti-human-TMEM27 antibodies, raised against the extracellular domain of TMEM27) was used for detection of TMEM27 in the culture medium. An IC50 for BACE2 inhibition was calculated using the ELISA readout for each inhibitor concentration with standard curve-fitting software.
The inhibitory activity, given as an IC50 value, of the compounds of Examples 1 to 32 and 34 to 74 were as follows.
(In general: An ELISA detects its analyte on a solid surface through an enzyme-linked reagent.)

Here are results for 21 compounds from patent US20120053200A1, “BACE 2 INHIBITORS” (priority 2010, published 2012).

For orientation: IC50 means the concentration that inhibits the measured activity by half. `Cn1ccc(C2CCCN2C(=O)c2cccc(C(=O)N[C@@H](Cc3ccccc3)[C@H](O)CNCc3cccc(C(F)(F)F)c3)c2)n1` (stereo partly drawn) [Example 14, N-[(1S,2R)-1-Benzyl-2-hydroxy-3-(3-trifluoromethyl-benzylamino)-propyl]-3-[2-(1-methyl-1H-pyrazol-3-yl)-pyrrolidine-1-carbonyl]-benzamide] had a half-maximal inhibitory concentration (IC50) of 63 nM.

The compound `CCn1cc(CNC[C@@H](O)[C@H](Cc2ccccc2)NC(=O)c2cccc(C(=O)N3CCCC3c3ccccc3)c2)cn1` (stereo partly drawn) [Example 23, N-{(1S,2R)-1-Benzyl-3-[(1-ethyl-1H-pyrazol-4-ylmethyl)-amino]-2-hydroxy-propyl}-3-(2-phenyl-pyrrolidine-1-carbonyl)-benzamide] showed an IC50 of 57.7 nM.

In turn, `O=C(N[C@@H](Cc1ccccc1)[C@H](O)CNCc1cccc(C(F)(F)F)c1)c1cccc(C(=O)N2CCCC2C2CCCCC2)c1` (stereo partly drawn) [Example 69, N-[(1S,2R)-1-Benzyl-2-hydroxy-3-(3-trifluoromethyl-benzylamino)-propyl]-3-(2-cyclohexyl-pyrrolidine-1-carbonyl)-benzamide] registered an IC50 of 7 nM.

In turn, `Cc1cc(C(=O)N[C@@H](Cc2ccccc2)[C@H](O)CNCc2cccc(OC(F)(F)F)c2)cc(C(=O)N(C)Cc2ccccn2)c1` [Example 44, N-[(1S,2R)-1-Benzyl-2-hydroxy-3-(3-trifluoromethoxy-benzylamino)-propyl]-5,N′-dimethyl-N′-pyridin-2-ylmethyl-isophthalamide] displayed an IC50 of 49 nM.

`CCn1cc(CNC[C@@H](O)[C@H](Cc2ccccc2)NC(=O)c2cc(C)cc(C(=O)N(C)Cc3nc(C)cs3)c2)cn1` [Example 40, N-{(1S,2R)-1-Benzyl-3-[(1-ethyl-1H-pyrazol-4-ylmethyl)-amino]-2-hydroxy-propyl}-5,N′-dimethyl-N′-(4-methyl-thiazol-2-ylmethyl)-isophthalamide] registered a 50% inhibitory concentration (IC50) of 104 nM.

For `CN(Cc1ccccn1)C(=O)c1cccc(C(=O)N[C@@H](Cc2ccccc2)[C@H](O)CNCc2cccc(C(F)(F)F)c2)c1` [Example 18, N-[(1S,2R)-1-Benzyl-2-hydroxy-3-(3-trifluoromethyl-benzylamino)-propyl]-N′-methyl-N′-pyridin-2-ylmethyl-isophthalamide], the 50% inhibitory concentration (IC50) worked out at 47 nM.

Compound `O=C(N[C@@H](Cc1ccccc1)[C@H](O)CNCc1cccc(C(F)(F)F)c1)c1cccc(C(=O)N2CCCC2C(=O)c2ccccc2)c1` (stereo partly drawn) [Example 71, 3-(2-Benzoyl-pyrrolidine-1-carbonyl)-N-[(1S,2R)-1-benzyl-2-hydroxy-3-(3-trifluoromethyl-benzylamino)-propyl]-benzamide] displayed a 50% inhibitory concentration (IC50) of 484 nM.

The compound `CCn1cc(CNC[C@@H](O)[C@H](Cc2ccccc2)NC(=O)c2cccc(C(=O)N3CCCC3c3cccs3)c2)cn1` (stereo partly drawn) [Example 31, N-{(1S,2R)-1-Benzyl-3-[(1-ethyl-1H-pyrazol-4-ylmethyl)-amino]-2-hydroxy-propyl}-3-(2-thiophen-2-yl-pyrrolidine-1-carbonyl)-benzamide] came in with an IC50 of 239 nM.

For the compound `Cc1cc(C(=O)N[C@@H](Cc2ccccc2)[C@H](O)CNCc2cccc(OC(F)(F)F)c2)cc(C(=O)N2CCCC2c2ccccc2)c1` (stereo partly drawn) [Example 43, N-[(1S,2R)-1-Benzyl-2-hydroxy-3-(3-trifluoromethoxy-benzylamino)-propyl]-3-methyl-5-(2-phenyl-pyrrolidine-1-carbonyl)-benzamide], the IC50 came out at 3 nM.

`Cn1nccc1C1CCCN1C(=O)c1cccc(C(=O)N[C@@H](Cc2ccccc2)[C@H](O)CNCc2cccc(C(F)(F)F)c2)c1` (stereo partly drawn) [Example 15, N-[(1S,2R)-1-Benzyl-2-hydroxy-3-(3-trifluoromethyl-benzylamino)-propyl]-3-[2-(2-methyl-2H-pyrazol-3-yl)-pyrrolidine-1-carbonyl]-benzamide] returned an IC50 of 332 nM.

The compound `Cc1cc(C(=O)N[C@@H](Cc2ccccc2)[C@H](O)CNCc2cccc(OC(F)(F)F)c2)cc(C(=O)N2CCCC2c2cccs2)c1` (stereo partly drawn) [Example 46, N-[(1S,2R)-1-Benzyl-2-hydroxy-3-(3-trifluoromethoxy-benzylamino)-propyl]-3-methyl-5-(2-thiophen-2-yl-pyrrolidine-1-carbonyl)-benzamide] gave a concentration for half-maximal inhibition (IC50) of 1 nM.

For `CN(Cc1ccccn1)C(=O)c1cccc(C(=O)N[C@@H](Cc2ccccc2)[C@H](O)CNCc2cccc(OC(F)(F)F)c2)c1` [Example 29, N-[(1S,2R)-1-Benzyl-2-hydroxy-3-(3-trifluoromethoxy-benzylamino)-propyl]-N′-methyl-N′-pyridin-2-ylmethyl-isophthalamide], the IC50 worked out at 112 nM.

`Cc1csc(CN(C)C(=O)c2cccc(C(=O)N[C@@H](Cc3ccccc3)[C@H](O)CNCc3cccc(C(F)(F)F)c3)c2)n1` [Example 1, N-[(1S,2R)-1-Benzyl-2-hydroxy-3-(3-trifluoromethyl-benzylamino)-propyl]-N′-methyl-N′-(4-methyl-thiazol-2-ylmethyl)-isophthalamide] yielded a concentration for half-maximal inhibition (IC50) of 205 nM.

`Cc1cc(C(=O)N[C@@H](Cc2ccccc2)[C@H](O)CNCc2cccc(C(F)(F)F)c2)cc(C(=O)N2CCC[C@@H]2c2nc(C)cs2)c1` [Example 49, N-[(1S,2R)-1-Benzyl-2-hydroxy-3-(3-trifluoromethyl-benzylamino)-propyl]-3-methyl-5-[(R)-2-(4-methyl-thiazol-2-yl)-pyrrolidine-1-carbonyl]-benzamide]: the midpoint of inhibition, the IC50, lay at 119 nM.

For `CCn1cc(CNC[C@@H](O)[C@H](Cc2ccccc2)NC(=O)c2cc(C(=O)N3CCCC3c3ccccc3)cc(N(C)S(C)(=O)=O)c2)cn1` (stereo partly drawn) [Example 35, N-{(1S,2R)-1-Benzyl-3-[(1-ethyl-1H-pyrazol-4-ylmethyl)-amino]-2-hydroxy-propyl}-3-(methanesulfonyl-methyl-amino)-5-(2-phenyl-pyrrolidine-1-carbonyl)-benzamide], the half-maximal inhibitory concentration (IC50) stood at 0.2 nM.

The compound `Cc1csc([C@H]2CCCN2C(=O)c2cc(C(=O)N[C@@H](Cc3ccccc3)[C@H](O)CNCc3cccc(OC(F)(F)F)c3)cc(N(C)S(C)(=O)=O)c2)n1` [Example 41, N-[(1S,2R)-1-Benzyl-2-hydroxy-3-(3-trifluoromethoxy-benzylamino)-propyl]-3-(methanesulfonyl-methyl-amino)-5-[(R)-2-(4-methyl-thiazol-2-yl)-pyrrolidine-1-carbonyl]-benzamide] came in with an IC50 of 0.1 nM.

`COc1ccc(C2CCCN2C(=O)c2cccc(C(=O)N[C@@H](Cc3ccccc3)[C@H](O)CNCc3cccc(C(F)(F)F)c3)c2)cc1` (stereo partly drawn) [Example 56, N-[(1S,2R)-1-Benzyl-2-hydroxy-3-(3-trifluoromethyl-benzylamino)-propyl]-3-[2-(4-methoxy-phenyl)-pyrrolidine-1-carbonyl]-benzamide] came in with a half-inhibitory concentration (IC50) of 115 nM.

Take `CN(c1cc(C(=O)N[C@@H](Cc2ccccc2)[C@H](O)CNCc2cccc(C(F)(F)F)c2)cc(C(=O)N2CCCC2c2cccs2)c1)S(C)(=O)=O` (stereo partly drawn) [Example 53, N-[(1S,2R)-1-Benzyl-2-hydroxy-3-(3-trifluoromethyl-benzylamino)-propyl]-3-(methanesulfonyl-methyl-amino)-5-(2-thiophen-2-yl-pyrrolidine-1-carbonyl)-benzamide]: the IC50 came out at 29 nM.

Regarding `CCn1cc(CNC[C@@H](O)[C@H](Cc2ccccc2)NC(=O)c2cc(C)cc(C(=O)N(C)Cc3ccccn3)c2)cn1` [Example 37, N-{(1S,2R)-1-Benzyl-3-[(1-ethyl-1H-pyrazol-4-ylmethyl)-amino]-2-hydroxy-propyl}-5,N′-dimethyl-N′-pyridin-2-ylmethyl-isophthalamide], the half-inhibitory concentration (IC50) is 1 nM.

As for `COc1cccc(CNC[C@@H](O)[C@H](Cc2ccccc2)NC(=O)c2cccc(C(=O)N3CCCC3c3cccs3)c2)c1` (stereo partly drawn) [Example 30, N-[(1S,2R)-1-Benzyl-2-hydroxy-3-(3-methoxy-benzylamino)-propyl]-3-(2-thiophen-2-yl-pyrrolidine-1-carbonyl)-benzamide], inhibition was half-maximal at 16 nM (IC50).

`COc1cccc(CNC[C@@H](O)[C@H](Cc2ccccc2)NC(=O)c2cccc(C(=O)N3CCC[C@@H]3c3nc(C)cs3)c2)c1` [Example 20, N-[(1S,2R)-1-Benzyl-2-hydroxy-3-(3-methoxy-benzylamino)-propyl]-3-[(R)-2-(4-methyl-thiazol-2-yl)-pyrrolidine-1-carbonyl]-benzamide] had an IC50 of 143 nM.
